The test addresses T1, Full-length glucokinase (beta cell isoform) (Homo sapiens, UniProt P35557).
T1 construct: Full-length glucokinase (beta cell isoform) was His-tagged at N-terminus; His tag (N); made in house; host or cells: E. coli BL21(DE3), pBCGK vector
T1 sequence (P35557 1-465): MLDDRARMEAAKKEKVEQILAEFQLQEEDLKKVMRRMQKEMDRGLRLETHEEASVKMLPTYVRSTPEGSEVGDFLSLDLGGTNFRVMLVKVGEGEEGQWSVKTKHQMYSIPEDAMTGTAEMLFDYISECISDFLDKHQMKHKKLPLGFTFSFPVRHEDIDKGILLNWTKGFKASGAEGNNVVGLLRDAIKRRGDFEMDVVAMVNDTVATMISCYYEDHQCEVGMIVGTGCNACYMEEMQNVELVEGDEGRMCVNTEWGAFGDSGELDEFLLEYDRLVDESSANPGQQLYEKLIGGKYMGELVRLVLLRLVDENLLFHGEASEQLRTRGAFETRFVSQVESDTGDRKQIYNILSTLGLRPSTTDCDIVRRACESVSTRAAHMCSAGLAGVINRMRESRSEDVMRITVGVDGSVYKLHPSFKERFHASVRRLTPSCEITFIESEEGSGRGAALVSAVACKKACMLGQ
Nature of the test: Glucokinase activation assay (PK/LDH-coupled, NADH depletion at 340 nm). The class given is biochemical. To be noted: 5 mM glucose, single value or range where N>1; for EC50: 2.5 mM ATP, pH 7.1, room temperature, read-out: EC50; for Emax: % max activation = (Va/Vo−1)×100 from fit, pH 7.1, read-out: Maximum Activation (%). The method, then:
Full-length glucokinase (beta cell isoform) was His-tagged at N-terminus and purified by a Ni column followed by size exclusion chromatography. A 320 mL column was packed in house using Superdex75 (Amersham Pharmacia, Carlsbad, Calif.) preparation grade resin. Glucose was obtained from Calbiochem (San Diego, Calif.) and other reagents were purchased from Sigma-Aldrich (St. Louis, Mo.).
All assays were performed in a Corning 384-well plate using Spectramax PLUS spectrophotometer (Molecular Devices, Sunnyvale, Calif.) at room temperature. The final assay volume was 40 ∥L. The buffer conditions used in this assay were as follows: 50 mM HEPES, 5 mM glucose, 2.5 mM ATP, 3.5 mM MgCl2, 0.7 mM NADH, 2 mM dithiothreitol, 1 unit/mL pyruvate kinase/lactate dehydrogenase (PK/LDH), 0.2 mM phosphoenolpyruvate, and 25 mM KCl. The buffer pH was 7.1. The test compound in dimethylsulfoxide solution was added to the buffer and mixed by a plate shaker for 7.5 minutes. The final concentration of dimethylsulfoxide introduced into the assay was 0.25%.
Glucokinase was added to the buffer mixture to initiate the reaction in the presence and absence of compound. The reaction was monitored by absorbance at 340 nm due to the depletion of NADH. The initial reaction velocity was measured by the slope of a linear time course of 0-300 seconds. The percentage of maximum activation was calculated by the following equation: % Maximum Activation=(Va/Vo−1)×100; wherein each of Va and Vo is defined as the initial reaction velocity in the presence and absence of the tested compound, respectively.
The glucokinase activities were measured as a function of compound concentrations.

Each structure is given as a SMILES string. Some results are limits rather than exact numbers.

What is called EC50 is the midpoint of the concentration-response curve.

As for `CC(C)(O)Cn1ccc(NC(=O)[C@H](CC2CCCC2)n2cnc(C(F)(F)F)c2)n1` [Example 56, (S)-3-cyclopentyl-N-(1-(2-hydroxy-2-methylpropyl)-1H-pyrazol-3-yl)-2-(4-(trifluoromethyl)-1H-imidazol-1-yl)propanamide], the EC50 came out at 5.2 µM and the Emax turned out to be 167%.
Turning to `Cc1ccc(NC(=O)[C@H](CC2CCCC2)n2cnc(S(=O)(=O)C(C)C)c2)nc1` [Example 28, (S)-3-cyclopentyl-2-(4-(isopropylsulfonyl)-1H-imidazol-1-yl)-N-(5-methylpyridin-2-yl)propanamide], the EC50 was above 100 µM.
On the same count and under the same terms, the result for `CN(C)C(=O)c1cnn([C@@H](CC2CCCC2)C(=O)Nc2ccn(C)n2)c1` [Example 71, (S)-1-(3-cyclopentyl-1-(1-methyl-1H-pyrazol-3-ylamino)-1-oxopropan-2-yl)-N,N-dimethyl-1H-pyrazole-4-carboxamide] reads above 30 µM.
For `CCn1ccc(NC(=O)[C@H](CC2CCCC2)n2cc(S(=O)(=O)C(C)C)cn2)n1` [Example 18, (S)-3-cyclopentyl-N-(1-ethyl-1H-pyrazol-3-yl)-2-(4-(isopropylsulfonyl)-1H-pyrazol-1-yl)propanamide], the EC50 is 15.7 µM and the Emax was 24%.
The like results for `Cc1cnc(NC(=O)[C@H](CC2CCCC2)n2cc(S(=O)(=O)C(C)C)cn2)cn1` [Example 6, (S)-3-cyclopentyl-2-(4-(isopropylsulfonyl)-1H-pyrazol-1-yl)-N-(5-methylpyrazin-2-yl)propanamide] were, in that order, 4.8 to 5.6 µM and 70 to 76%.
The like results for `CS(=O)(=O)c1cnn([C@@H](CC2CCCC2)C(=O)Nc2ccncn2)c1` [Example 13, (S)-3-cyclopentyl-2-(4-(methylsulfonyl)-1H-pyrazol-1-yl)-N-(pyrimidin-4-yl)propanamide] were, in that order, 32 µM and 100%.
Consider `CCn1ccc(NC(=O)[C@H](CC2CCCC2)n2cc(S(C)(=O)=O)cn2)n1` [Example 11, (S)-3-cyclopentyl-N-(1-ethyl-1H-pyrazol-3-yl)-2-(4-(methylsulfonyl)-1H-pyrazol-1-yl)propanamide], for which the EC50 turned out to be 32 µM and the Emax came to 110%.
The like results for `Cn1ccc(NC(=O)[C@H](CC2CCCC2)n2nnc(S(C)(=O)=O)n2)n1` [Example 79, (S)-3-cyclopentyl-N-(1-methyl-1H-pyrazol-3-yl)-2-(5-(methylsulfonyl)-2H-tetrazol-2-yl)propanamide] were, in that order, 40 µM and 99%.
For `Cc1cnc(NC(=O)[C@H](CC2CCCC2)n2cc(C(=O)N(C)C)cn2)cn1` [Example 73, (S)-1-(3-cyclopentyl-1-(5-methylpyrazin-2-ylamino)-1-oxopropan-2-yl)-N,N-dimethyl-1H-pyrazole-4-carboxamide], the EC50 is above 100 µM.
In the case of `Cn1ccc(NC(=O)[C@H](CC2CCCC2)n2cnc(S(C)(=O)=O)c2)n1` [Example 36, (S)-3-cyclopentyl-N-(1-methyl-1H-pyrazol-3-yl)-2-(4-(methylsulfonyl)-1H-imidazol-1-yl)propanamide], the EC50 turned out to be 23 µM and the Emax was 125%.
The like results for `Cc1ccc(NC(=O)[C@H](CC2CCCC2)n2nnc(S(C)(=O)=O)n2)nc1` [Example 80, (S)-3-cyclopentyl-N-(5-methylpyridin-2-yl)-2-(5-(methylsulfonyl)-2H-tetrazol-2-yl)propanamide] were, in that order, 32 µM and 86%.
As to `CC(C)S(=O)(=O)c1cnn([C@@H](CC2CCCC2)C(=O)Nc2ccon2)c1` [Example 15, (S)-3-cyclopentyl-2-(4-(isopropylsulfonyl)-1H-pyrazol-1-yl)-N-(isoxazol-3-yl)propanamide], the EC50 came out at 60 µM and the Emax stood at 89%.
Consider `Cc1nc(C(F)(F)F)cn1[C@@H](CC1CCCC1)C(=O)Nc1ccc(C(=O)O)cn1` [Example 92, (S)-6-(3-cyclopentyl-2-(2-methyl-4-(trifluoromethyl)-1H-imidazol-1-yl)propanamido)nicotinic acid], for which the EC50 lay in the range of 0.4 to 1.2 µM and the Emax lay within 158 to 168%.
`Cc1cnc(NC(=O)[C@H](CC2CCCC2)n2ccc(C(F)(F)F)n2)cn1` [Example 70, (S)-3-cyclopentyl-N-(5-methylpyrazin-2-yl)-2-(3-(trifluoromethyl)-1H-pyrazol-1-yl)propanamide]: the EC50 was 24 µM and the Emax turned out to be 124%.
`Cc1ccc(NC(=O)[C@H](CC2CCCC2)n2cc(C)c(C(F)(F)F)n2)nc1` [Example 93, (S)-3-cyclopentyl-2-(4-methyl-3-(trifluoromethyl)-1H-pyrazol-1-yl)-N-(5-methylpyridin-2-yl)propanamide]: the EC50 lay in the range of 4 to 5.4 µM and the Emax fell in the range of 92 to 95%.
The like results for `Cc1ccc(NC(=O)[C@H](CC2CCCC2)n2cc(C(F)(F)F)nc2C)nc1` [Example 91, (S)-3-cyclopentyl-2-(2-methyl-4-(trifluoromethyl)-1H-imidazol-1-yl)-N-(5-methylpyridin-2-yl)propanamide] were, in that order, 0.4 µM and 120%.
The like results for `Cc1ccc(NC(=O)[C@H](CC2CCCC2)n2cc(C(F)(F)F)c(C)n2)nc1` [Example 96, (S)-3-cyclopentyl-2-(3-methyl-4-(trifluoromethyl)-1H-pyrazol-1-yl)-N-(5-methylpyridin-2-yl)propanamide] were, in that order, 2.8 µM and 123%.
The like results for `Cc1ccc(NC(=O)[C@H](CC2CCCC2)n2cc(S(C)(=O)=O)cn2)nc1` [Example 8, (S)-3-cyclopentyl-N-(5-methylpyridin-2-yl)-2-(4-(methylsulfonyl)-1H-pyrazol-1-yl)propanamide] were, in that order, 3.8 µM and 100%.
As to `Cc1cnc(NC(=O)[C@H](CC2CCCC2)n2nnc(S(C)(=O)=O)n2)cn1` [Example 81, (S)-3-cyclopentyl-N-(5-methylpyrazin-2-yl)-2-(5-(methylsulfonyl)-2H-tetrazol-2-yl)propanamide], the EC50 is above 50 µM.
Consider `CC(C)S(=O)(=O)c1cn([C@@H](CC2CCCC2)C(=O)Nc2ccn(C)n2)cn1` [Example 29, (S)-3-cyclopentyl-2-(4-(isopropylsulfonyl)-1H-imidazol-1-yl)-N-(1-methyl-1H-pyrazol-3-yl)propanamide], for which the EC50 came out at 17 µM and the Emax was 112%.
The like results for `CC(C)S(=O)(=O)c1cnn([C@@H](CC2CCCC2)C(=O)Nc2ccncn2)c1` [Example 4, (S)-3-cyclopentyl-2-(4-(isopropylsulfonyl)-1H-pyrazol-1-yl)-N-(pyrimidin-4-yl)propanamide] were, in that order, 0.9 to 2.2 µM and 57 to 90%.
With `O=C(Nc1ccc(CP(=O)(O)O)cn1)[C@H](CC1CCCC1)n1cnc(C(F)(F)F)c1` [Example 60, (S)-(6-(3-cyclopentyl-2-(4-(trifluoromethyl)-1H-imidazol-1-yl)propanamido)pyridin-3-yl)methylphosphonic acid], the EC50 is 4.6 µM and the Emax amounted to 112%.
Turning to `Cc1ccc(NC(=O)[C@H](CC2CCCC2)n2ccc(C(F)(F)F)n2)nc1` [Example 69, (S)-3-cyclopentyl-N-(5-methylpyridin-2-yl)-2-(3-(trifluoromethyl)-1H-pyrazol-1-yl)propanamide], the EC50 is 5.5 µM and the Emax is 90%.
For `Cn1ccc(NC(=O)[C@H](CC2CCOCC2)n2cnc(C(F)(F)F)c2)n1` [Example 76, (S)—N-(1-methyl-1H-pyrazol-3-yl)-3-(tetrahydro-2H-pyran-4-yl)-2-(4-(trifluoromethyl)-1H-imidazol-1-yl)propanamide], the EC50 is 18 µM and the Emax was determined as 138%.
The like results for `COc1ccc2nc(NC(=O)[C@H](CC3CCOCC3)n3cnc(C(F)(F)F)c3)sc2n1` [Example 78, (S)—N-(5-methoxythiazolo[5,4-b]pyridin-2-yl)-3-(tetrahydro-2H-pyran-4-yl)-2-(4-(trifluoromethyl)-1H-imidazol-1-yl)propanamide] were, in that order, 4.2 to 4.4 µM and 109 to 114%.

For the origin of these results see patent publication US8389552B2, “(S)-6-(2-(4-(cyclobutylsulfonyl)-1H-imidazol-1-yl)-3-cyclopentylpropanamido)nicotinic acid useful as a glucokinase activator” (Pfizer Inc., priority 2009, dated 2013).
